In ChEMBL document CHEMBL4610002, “Selenium bioisosteric replacement of adenosine derivatives promoting adiponectin secretion increases the binding affinity to peroxisome proliferator-activated receptor δ” (Bioorg Med Chem, 2020):
The source made the active and inactive calls. The rule behind the calls is not given here.

What was measured:
Homo sapiens [1] = organism: Homo sapiens; assay: Induction of adipogenesis in human MSC at 10 uM incubated for 5 days cotreated with IDX by ELISA; assay type: functional
[2] = biological target: T1, Peroxisome proliferator-activated receptor delta (Homo sapiens) (UniProt Q03181); assay: Competitive binding affinity to GST-tagged human PPARdelta LBD at 30 uM incubated for 1 to 6 hrs by TR-FRET assay relative to control
T1 sequence (whole entry): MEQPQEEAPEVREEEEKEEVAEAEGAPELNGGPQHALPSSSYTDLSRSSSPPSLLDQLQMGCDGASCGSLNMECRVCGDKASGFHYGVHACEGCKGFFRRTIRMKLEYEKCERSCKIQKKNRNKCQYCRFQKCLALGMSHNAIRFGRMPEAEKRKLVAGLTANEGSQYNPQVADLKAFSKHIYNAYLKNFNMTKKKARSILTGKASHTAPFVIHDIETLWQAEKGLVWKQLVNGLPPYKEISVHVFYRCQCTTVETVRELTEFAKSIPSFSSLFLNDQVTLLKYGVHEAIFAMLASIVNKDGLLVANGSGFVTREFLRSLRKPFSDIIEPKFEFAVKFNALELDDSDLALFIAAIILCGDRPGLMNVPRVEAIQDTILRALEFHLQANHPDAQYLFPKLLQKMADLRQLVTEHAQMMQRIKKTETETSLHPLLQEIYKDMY

[3] = biological target: T2, Peroxisome proliferator-activated receptor alpha (Homo sapiens) (UniProt Q07869); assay: Binding affinity to GST-tagged human PPARalpha LBD up to 30 uM incubated for 2 to 6 hrs by TR-FRET assay
T2 sequence (whole entry): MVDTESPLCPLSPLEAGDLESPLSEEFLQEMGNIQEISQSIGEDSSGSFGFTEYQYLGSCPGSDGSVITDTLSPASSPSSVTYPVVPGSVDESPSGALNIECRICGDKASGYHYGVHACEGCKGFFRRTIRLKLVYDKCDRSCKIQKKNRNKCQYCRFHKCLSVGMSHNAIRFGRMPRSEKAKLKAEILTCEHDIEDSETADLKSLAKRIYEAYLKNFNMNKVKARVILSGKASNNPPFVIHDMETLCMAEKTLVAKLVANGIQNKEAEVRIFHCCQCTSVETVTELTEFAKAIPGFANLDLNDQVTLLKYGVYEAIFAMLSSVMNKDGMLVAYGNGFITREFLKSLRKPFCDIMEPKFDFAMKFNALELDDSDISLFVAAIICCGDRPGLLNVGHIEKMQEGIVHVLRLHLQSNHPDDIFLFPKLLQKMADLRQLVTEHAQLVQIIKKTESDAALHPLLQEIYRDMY

[4] = biological target: T3, Peroxisome proliferator-activated receptor gamma (Homo sapiens) (UniProt P37231); assay: Competitive binding affinity to GST-tagged human PPARgamma LBD at 30 uM incubated for 1 to 6 hrs by TR-FRET assay relative to control
T3 sequence (whole entry): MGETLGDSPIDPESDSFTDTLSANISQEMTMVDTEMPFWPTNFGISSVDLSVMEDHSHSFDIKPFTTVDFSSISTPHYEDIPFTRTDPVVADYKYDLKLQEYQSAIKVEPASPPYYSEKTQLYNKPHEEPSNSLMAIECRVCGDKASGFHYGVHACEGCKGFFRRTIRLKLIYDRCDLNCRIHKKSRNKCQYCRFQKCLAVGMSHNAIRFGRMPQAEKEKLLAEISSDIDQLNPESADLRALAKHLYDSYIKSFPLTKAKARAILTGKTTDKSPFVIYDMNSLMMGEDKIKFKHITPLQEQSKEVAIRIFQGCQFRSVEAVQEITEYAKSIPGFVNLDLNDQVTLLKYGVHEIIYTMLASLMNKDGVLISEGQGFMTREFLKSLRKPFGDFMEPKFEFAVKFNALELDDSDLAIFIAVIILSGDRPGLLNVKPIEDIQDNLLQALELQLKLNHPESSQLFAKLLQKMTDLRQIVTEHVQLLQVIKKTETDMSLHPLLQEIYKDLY

[5] = biological target: T4, Peroxisome proliferator-activated receptor delta (Homo sapiens, UniProt Q03181); assay: (§1) Competitive binding affinity to GST-tagged human PPARdelta LBD incubated for 1 to 6 hrs by TR-FRET assay
T4 sequence (Q03181 whole entry): T1 sequence (whole entry)

[6] = biological target: T3, Peroxisome proliferator-activated receptor gamma (Homo sapiens); assay: Partial agonist at PPARgamma LBD (unknown origin) assessed as increase in recruitment of coactivator peptide C33 by TR-FRET assay relative to control
[7] = biological target: T4, Peroxisome proliferator-activated receptor delta; assay: Antagonist activity at PPARdelta LBD (unknown origin) assessed as increase in recruitment of SMRT ID2 corepressor peptide by TR-FRET assay
[8] = biological target: T5, Peroxisome proliferator-activated receptor gamma (Homo sapiens, UniProt P37231); assay: (§2) Competitive binding affinity to GST-tagged human PPARgamma LBD incubated for 1 to 6 hrs by TR-FRET assay
T5 sequence (P37231 whole entry): T3 sequence (whole entry)

[9] = Induction of adipogenesis in human MSC incubated for 5 days cotreated with IDX by ELISA; assay type: functional
[10] = biological target: T4, Peroxisome proliferator-activated receptor delta; assay: Antagonist at PPARdelta LBD (unknown origin) assessed as […] in recruitment of coactivator peptide C33 cotreated with PPARdelta agonist GW501516 by TR-FRET assay
[11] = biological target: T1, Peroxisome proliferator-activated receptor delta (Homo sapiens); assay: as §1
[12] = biological target: T3, Peroxisome proliferator-activated receptor gamma (Homo sapiens); assay: Partial agonist at PPARgamma LBD (unknown origin) assessed as inhibition in recruitment of coactivator peptide C33 cotreated with PPARgamma agonist troglitazone by TR-FRET assay
Homo sapiens [13] = organism: Homo sapiens; assay: Induction of adipogenesis in human MSC assessed as increase in size of lipid droplets in differentiated adipocytes at 10 uM by Oil Red O staining based inverted microscopic method; assay type: functional, cell-based
[14] = biological target: T3, Peroxisome proliferator-activated receptor gamma (Homo sapiens); assay: as §2
Homo sapiens [15] = organism: Homo sapiens; assay: Induction of adipogenesis in human MSC at 10 uM incubated for 5 days cotreated with IDX by ELISA relative to control; assay type: functional
Homo sapiens [16] = organism: Homo sapiens; assay: Induction of adipogenesis in human MSC assessed as increase in number of lipid droplets in differentiated adipocytes at 10 uM by Oil Red O staining based inverted microscopic method; assay type: functional, cell-based

| SMILES | Activity (Homo sapiens [1]) | Activity [2] | Activity [3] | Activity [4] | also measured |
| --- | --- | --- | --- | --- | --- |
| CNC(=O)[C@H]1[Se][C@@H](n2cnc3c(NCc4cccc(I)c4)ncnc32)[C@H](O)[C@@H]1O | Active | > 50% | inactive | Active |  |
| CNC(=O)[C@H]1[Se][C@@H](n2cnc3c(NCc4cccc(F)c4)ncnc32)[C@H](O)[C@@H]1O |  |  | inactive |  |  |
| CNC(=O)[C@H]1[Se][C@@H](n2cnc3c(NCc4cccc(Br)c4)nc(Cl)nc32)[C@H](O)[C@@H]1O | Active | > 50% | inactive | Active |  |
| CNC(=O)[C@H]1S[C@@H](n2cnc3c(NCc4cccc(I)c4)nc(Cl)nc32)[C@H](O)[C@@H]1O |  |  | inactive |  | EC50 [5]: 0.0411 µM; Activity [6]: < 50%; EC50 [7]: 16.7 µM; EC50 [8]: 4.64 µM; EC50 [9]: 20.8 µM; EC50 [10]: 10.7 µM |
| CCc1ccc(CCOc2ccc(CC3SC(=O)NC3=O)cc2)nc1 (stereo unspecified) [PIOGLITAZONE] |  |  |  |  | EC50 [9]: 0.5 µM |
| CNC(=O)[C@H]1[Se][C@@H](n2cnc3c(NC4CCCC4)ncnc32)[C@H](O)[C@@H]1O |  |  | inactive |  |  |
| CNC(=O)[C@H]1S[C@@H](n2cnc3c(NCc4cccc(I)c4)ncnc32)[C@H](O)[C@@H]1O |  |  | inactive |  |  |
| CNC(=O)[C@H]1[Se][C@@H](n2cnc3c(NCc4cccc(Br)c4)ncnc32)[C@H](O)[C@@H]1O | Active | > 50% | inactive |  |  |
| CNC(=O)[C@H]1[Se][C@@H](n2cnc3c(NCc4cccc5ccccc45)ncnc32)[C@H](O)[C@@H]1O | Active |  | inactive | Active |  |
| CNC(=O)[C@H]1[Se][C@@H](n2cnc3c(NCc4cccc(F)c4)nc(Cl)nc32)[C@H](O)[C@@H]1O | Active | > 50% | inactive |  |  |
| CNC(=O)[C@H]1O[C@@H](n2cnc3c(NCc4cccc(I)c4)nc(Cl)nc32)[C@H](O)[C@@H]1O [NAMODENOSON] |  |  | inactive |  | EC50 [5]: 0.191 µM; Activity [6]: < 50%; EC50 [8]: 2.94 µM; EC50 [9]: 40.6 µM; EC50 [10]: 29.8 µM |
| CNC(=O)[C@H]1[Se][C@@H](n2cnc3c(NCc4cccc(I)c4)nc(Cl)nc32)[C@H](O)[C@@H]1O | Active | > 50% | inactive | > 50% | Activity [11]: Dose-dependent effect; EC50 [5]: 0.0144 µM; Activity [6]: < 50%; EC50 [7]: 7.3 µM; inhibition [12]: Active; Activity (Homo sapiens [13]): Active; Activity [14]: Dose-dependent effect; EC50 [8]: 5.31 µM; fold change (FC) (Homo sapiens [15]): 3.22; EC50 [9]: 12.6 µM; EC50 [10]: 5.2 µM; Activity (Homo sapiens [16]): Active |
| CNC(=O)[C@H]1[Se][C@@H](n2cnc3c(NCc4cccc(Cl)c4)nc(Cl)nc32)[C@H](O)[C@@H]1O | Active | > 50% | inactive | Active |  |
| CNC(=O)[C@H]1[Se][C@@H](n2cnc3c(NCc4ccccc4Cl)ncnc32)[C@H](O)[C@@H]1O |  |  | inactive |  |  |
| CNC(=O)[C@H]1O[C@@H](n2cnc3c(NCc4cccc(I)c4)ncnc32)[C@H](O)[C@@H]1O |  |  | inactive |  |  |
